Among the test systems are M14 melanoma; PC-3 prostate; CCRF-CEM leukemia; HCC-2998 colon; RPMI-8226 leukemia; K-562 leukemia; RXF 393 renal; ACHN renal; BT-549 breast; A549 NSCLC.
What all share (assay): inhibition of tumour cell growth, NCI panel, 48 h

SMILES strings stand for the structures.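 Following 48 hours of exposure in 96-well plates, responses at five concentrations were used to interpolate endpoints linearly. GI50 is the concentration that inhibits growth by half. TGI: concentration producing complete growth inhibition.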

For `Cc1cc2nc3c4cccc(O)c4n(CCN(C)C)c3nc2cc1C`, the GI50 in the assay on M14 melanoma was 1.63 µM; in the assay with PC-3 prostate it was 1.88 µM; in the assay on CCRF-CEM leukemia, 1.57 µM; in the assay on HCC-2998 colon, 1.46 µM; with RPMI-8226 leukemia it was 1.36 µM; in the assay on K-562 leukemia, 1.24 µM. In addition, the GI50 with RXF 393 renal is 2.48 µM; in the assay on ACHN renal it was 1.09 µM; in the assay with BT-549 breast, 5.38 µM; in the assay with A549 NSCLC, 1.41 µM. Besides, the TGI with M14 melanoma amounted to 3.43 µM; in the assay on PC-3 prostate, 12.8 µM; with CCRF-CEM leukemia it was 6.25 µM; in the assay with HCC-2998 colon, 2.99 µM; with RPMI-8226 leukemia, 4.62 µM; with K-562 leukemia it was 4.77 µM. Besides, the TGI amounted to 8.98 µM in the assay with RXF 393 renal, 3.18 µM with ACHN renal, 32.8 µM with BT-549 breast and 12.5 µM with A549 NSCLC.
With `O=[N+]([O-])c1ccc(N=Nc2c(O)[nH]c3ccccc23)cc1`, the TGI in the assay on M14 melanoma was above 100 µM; in the assay with PC-3 prostate it was above 100 µM; with CCRF-CEM leukemia, above 80.1 µM; with HCC-2998 colon, above 100 µM; with RPMI-8226 leukemia, above 100 µM; with K-562 leukemia, above 84.6 µM. Moreover, the TGI in the assay with RXF 393 renal is 35.4 µM; in the assay on ACHN renal, 26.3 µM; in the assay on BT-549 breast, 71.3 µM; in the assay on A549 NSCLC, above 100 µM.
As for `COc1ccc(-c2ccccc2)cc1-c1c(Nc2cc(Cl)cc(Cl)c2O)c(=O)c1=O`, the GI50 in the assay on M14 melanoma was 1.72 µM; in the assay on PC-3 prostate, 1.37 µM; in the assay on CCRF-CEM leukemia it was 1.64 µM; with HCC-2998 colon, 1.78 µM; in the assay with RPMI-8226 leukemia it was 0.957 µM; in the assay on K-562 leukemia, 1.59 µM. Further, the GI50 with RXF 393 renal is 1.48 µM; in the assay on ACHN renal it was 1.5 µM; with BT-549 breast, 1.41 µM; with A549 NSCLC, 1.65 µM. For the same molecule, the TGI is above 50 µM with M14 melanoma; above 50 µM in the assay with PC-3 prostate; above 50 µM with CCRF-CEM leukemia; above 50 µM in the assay on HCC-2998 colon; 2.71 µM in the assay on RPMI-8226 leukemia; above 50 µM in the assay with K-562 leukemia. Moreover, the TGI with RXF 393 renal was above 50 µM; in the assay on ACHN renal, above 50 µM; in the assay on BT-549 breast, 4.59 µM; in the assay on A549 NSCLC, above 50 µM.
In the case of `CO/N=C(/COc1c(-c2ccccc2)oc2ccccc2c1=O)c1ccc(F)cc1`, the GI50 with M14 melanoma is 30.6 µM; in the assay on PC-3 prostate, 31.5 µM; with CCRF-CEM leukemia, 12.6 µM; with HCC-2998 colon, above 100 µM; in the assay with RPMI-8226 leukemia, 72.1 µM; in the assay on K-562 leukemia, above 100 µM. In addition, the GI50 in the assay on RXF 393 renal is 76.6 µM; with ACHN renal it was 31.8 µM; with BT-549 breast, 82.9 µM; with A549 NSCLC, 57.4 µM. For the same molecule, the TGI in the assay on M14 melanoma is above 100 µM; with PC-3 prostate, above 100 µM; in the assay on CCRF-CEM leukemia, 67.9 µM; in the assay with HCC-2998 colon it was above 100 µM; with RPMI-8226 leukemia it was above 100 µM; in the assay with K-562 leukemia, above 100 µM. Also, the TGI in the assay on RXF 393 renal, in the assay on ACHN renal, in the assay on BT-549 breast and with A549 NSCLC was above 100 µM each time.
For `COc1ccc(-n2c(C)nc3c(c(C)nn3-c3ccccc3)c2=O)cc1`, the GI50 was 0.0491 µM in the assay with M14 melanoma; 0.0603 µM with PC-3 prostate; 0.057 µM in the assay on CCRF-CEM leukemia; 0.191 µM in the assay with HCC-2998 colon; 0.108 µM in the assay with RPMI-8226 leukemia; 0.0356 µM with K-562 leukemia. For the same molecule, the GI50 was 0.0609 µM with RXF 393 renal, 0.0645 µM in the assay on ACHN renal, 0.123 µM in the assay with BT-549 breast and 0.107 µM in the assay with A549 NSCLC. The TGI with M14 melanoma was above 100 µM; in the assay on PC-3 prostate it was above 100 µM; in the assay on CCRF-CEM leukemia, above 100 µM; with HCC-2998 colon it was above 100 µM; in the assay on RPMI-8226 leukemia, above 33.6 µM; with K-562 leukemia, above 68.1 µM. Further, the TGI was above 100 µM in the assay with RXF 393 renal, above 100 µM in the assay on ACHN renal, 33.8 µM in the assay with BT-549 breast and above 100 µM in the assay on A549 NSCLC.
On to `Cc1ccc2[nH]c(C(=O)NN3C(=O)C(C)SC34CCCCC4C)c(-c3ccccc3)c2c1` (stereo not given), for which the GI50 in the assay on M14 melanoma was 20.2 µM; in the assay with PC-3 prostate it was 15.3 µM; in the assay with CCRF-CEM leukemia, 21.7 µM; in the assay with HCC-2998 colon it was 19.5 µM; with RPMI-8226 leukemia, 21.4 µM; with K-562 leukemia it was 18.5 µM. Moreover, the GI50 with RXF 393 renal was 0.415 µM; with ACHN renal it was 17.3 µM; in the assay with BT-549 breast, 18.8 µM; in the assay on A549 NSCLC, 15.9 µM. Besides, the TGI was 38.8 µM in the assay with M14 melanoma; 37.6 µM in the assay with PC-3 prostate; 73 µM in the assay with CCRF-CEM leukemia; 35.5 µM in the assay with HCC-2998 colon; 64 µM in the assay on RPMI-8226 leukemia; 60 µM in the assay on K-562 leukemia. In addition, the TGI is 21.1 µM in the assay on RXF 393 renal, 36.6 µM in the assay with ACHN renal, 34.5 µM with BT-549 breast and 32.9 µM in the assay with A549 NSCLC.
Regarding `Cc1cn2c(=O)n(c1=O)Cc1ccccc1C2`, the GI50 was above 100 µM in the assay on M14 melanoma; above 100 µM with PC-3 prostate; 50.6 µM in the assay on CCRF-CEM leukemia; above 100 µM in the assay on HCC-2998 colon; 28.3 µM in the assay with RPMI-8226 leukemia; above 100 µM with K-562 leukemia. The GI50 in the assay with RXF 393 renal was 19.5 µM; in the assay on ACHN renal, above 100 µM; with BT-549 breast, 48.4 µM; with A549 NSCLC it was above 100 µM. For the same molecule, the TGI with M14 melanoma, in the assay with PC-3 prostate, in the assay with CCRF-CEM leukemia, in the assay on HCC-2998 colon, in the assay with RPMI-8226 leukemia and in the assay on K-562 leukemia was above 100 µM in each case. The TGI in the assay with RXF 393 renal, with ACHN renal, with BT-549 breast and in the assay on A549 NSCLC was above 100 µM in each case.
Take `O=C(/C=C\c1ccc2ccccc2n1)c1cc(Cl)ccc1O`: the GI50 in the assay on M14 melanoma was 4.92 µM; with PC-3 prostate, 6.47 µM; in the assay with CCRF-CEM leukemia, 2.16 µM; in the assay with HCC-2998 colon it was 14.6 µM; in the assay on RPMI-8226 leukemia, 2.15 µM; in the assay with K-562 leukemia, 3.46 µM. Further, the GI50 was 2.3 µM with RXF 393 renal, 8.32 µM with ACHN renal, 4.82 µM in the assay with BT-549 breast and 57.9 µM in the assay with A549 NSCLC. Further, the TGI with M14 melanoma was 17.2 µM; in the assay with PC-3 prostate, 38.2 µM; in the assay on CCRF-CEM leukemia, 8.29 µM; in the assay with HCC-2998 colon, 28.3 µM; in the assay on RPMI-8226 leukemia, 5.83 µM; with K-562 leukemia, 23.2 µM. Moreover, the TGI with RXF 393 renal is 6.36 µM; in the assay with ACHN renal it was 21.4 µM; with BT-549 breast, 17 µM; in the assay with A549 NSCLC it was above 100 µM.

Source of the values: PubChem BioAssay (NCI).
